In article PMC6697681, “The predominance of nucleotidyl activation in bacterial phosphonate biosynthesis” (Nature Communications, 2019):

What was measured:
Tde-PntC (Tde1415) [1] = target: T1, Tde-PntC (Tde1415) (Treponema denticola, UniProt Q73MU2); test: X-ray crystal structure, […] Å; format: binding; conditions: PntC active site, two Mg2+; crystallised with 5 mM CTP and 5 mM AEP
T1 construct: full two-domain protein (N-terminal PntC, C-terminal AEPT), C-terminal His tag, pET21b (pGH3000), E. coli BL21(DE3); ~70 kDa monomer, dimer ~146 kDa by DLS

Ari-PntC (Ari1348) = target: T2, Ari-PntC (Ari1348) (Lancefieldella rimae, UniProt B9CM12); test: coupled pyrophosphate release assay (EnzChek, MESG/PNP), initial rates; format: biochemical; conditions: substrate inhibition constant; saturating CTP (4 mM), 7 mM MgCl2, room temperature
T2 construct: codon-optimized gene in pET29 (pGH2000), C-terminal His6 tag, E. coli BL21(DE3), Ni-NTA and anion exchange; monomer by DLS
Text: coupled pyrophosphate release assay (EnzChek, MESG/PNP), initial rates on Ari-PntC (Ari1348)

Spn-LicC = target: T3, Spn-LicC (Streptococcus pneumoniae, UniProt Q8DPI6); test: as above; format: biochemical; conditions: substrate inhibition constant; saturating CTP (4 mM), 7 mM MgCl2, room temperature
T3 construct: monomer by DLS
Text: coupled pyrophosphate release assay (EnzChek, MESG/PNP), initial rates on Spn-LicC

Tde-PntC (Tde1415) [2] = target: T1, Tde-PntC (Tde1415); test: X-ray crystal structure; format: binding; conditions: AEPT domain, non-covalently bound PLP

T1 sequence (Q73MU2 whole entry): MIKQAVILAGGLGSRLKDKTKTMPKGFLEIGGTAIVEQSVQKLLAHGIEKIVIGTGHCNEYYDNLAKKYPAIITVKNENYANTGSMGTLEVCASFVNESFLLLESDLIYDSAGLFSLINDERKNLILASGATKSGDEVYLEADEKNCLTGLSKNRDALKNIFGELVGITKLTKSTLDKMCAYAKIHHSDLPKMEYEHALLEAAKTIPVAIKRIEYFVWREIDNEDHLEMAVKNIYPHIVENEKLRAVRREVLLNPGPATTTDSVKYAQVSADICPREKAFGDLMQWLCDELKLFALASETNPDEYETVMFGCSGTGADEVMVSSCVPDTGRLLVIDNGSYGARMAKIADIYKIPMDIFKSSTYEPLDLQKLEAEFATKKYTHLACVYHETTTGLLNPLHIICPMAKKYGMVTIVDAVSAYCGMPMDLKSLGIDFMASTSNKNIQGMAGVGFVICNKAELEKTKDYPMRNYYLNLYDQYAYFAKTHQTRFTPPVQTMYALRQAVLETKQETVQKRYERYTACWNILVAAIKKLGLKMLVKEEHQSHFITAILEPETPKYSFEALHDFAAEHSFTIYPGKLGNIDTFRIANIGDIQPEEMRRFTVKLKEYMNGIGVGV
T3 sequence (Q8DPI6 whole entry): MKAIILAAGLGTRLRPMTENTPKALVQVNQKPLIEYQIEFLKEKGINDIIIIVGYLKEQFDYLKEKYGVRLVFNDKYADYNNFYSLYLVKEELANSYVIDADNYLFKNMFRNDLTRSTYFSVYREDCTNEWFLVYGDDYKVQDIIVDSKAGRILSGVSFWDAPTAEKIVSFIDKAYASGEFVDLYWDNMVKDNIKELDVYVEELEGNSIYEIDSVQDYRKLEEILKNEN
T2 sequence (B9CM12 whole entry): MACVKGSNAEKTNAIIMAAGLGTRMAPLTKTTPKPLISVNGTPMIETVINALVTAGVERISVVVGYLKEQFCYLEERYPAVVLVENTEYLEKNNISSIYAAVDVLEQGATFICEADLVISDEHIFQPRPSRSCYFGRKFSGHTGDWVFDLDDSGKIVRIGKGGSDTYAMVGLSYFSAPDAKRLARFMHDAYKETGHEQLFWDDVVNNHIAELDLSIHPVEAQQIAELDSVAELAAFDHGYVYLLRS

NCCP(=O)(O)OP(=O)(O)OC[C@H]1O[C@@H](n2ccc(N)nc2=O)[C@H](O)[C@@H]1O [CMP-AEP]
X-ray crystal structure, 1.95 Å (Tde-PntC (Tde1415) [1]): Tde1415 and Tde1415:CMP-AEP have been deposited in the Protein Data Bank

C[N+](C)(C)CCOP(=O)([O-])O [P-Cho]
KS (Ari-PntC (Ari1348)): 4 ± 1 mM | KS (Spn-LicC): 6.4 ± 0.9 mM

Cc1ncc(COP(=O)(O)O)c(C=O)c1O [PLP]
X-ray crystal structure (Tde-PntC (Tde1415) [2]): The AEPT domain of Tde1415 possesses PLP and the requisite active site features
